We go through two compounds from patent US11278497B2, “Co-spray drying of meropenem and colistin and the uses thereof” (Purdue Research Foundation, priority 2018, dated 2022).

The conditions of data set [1]: cited from earlier work.
In a further data set the test system is P. aeruginosa 19147. Description: Time-kill assay against P. aeruginosa 19147. The following applies: for time-kill antibacterial activity, monotherapy (summary): considerable regrowth; for complete bacterial killing in time-kill: monotherapy, e.g. 192 mg/L, at 24 h. Type of data set: cell-based, Pseudomonas aeruginosa. The method, then: (§1) Time-kill studies were conducted for meropenem, colistin and three combinations (Colistin:Meropenem_1:3, Colistin:Meropenem_1:1 and Colistin:Meropenem_3:1) against A. baumannii N16870 and P. aeruginosa 19147. All experiments were performed with an initial inoculum of ˜10^6 CFU/mL in 20 mL of Cation-Adjusted Mueller-Hinton Broth (CAMHB) in 50 mL pyrogen-free and sterile polypropylene tubes. Serial samples (50 μL) were collected at 0, 1, 2, 4, and 24 h for viable counting on nutrient agar plates and the limit of detection was 20 CFU/mL. A ProtoCOL automated colony counter (Synbiosis, Cambridge, United Kingdom) was used to quantify bacteria after 24 h of incubation at 37° C. Bacterial growth was measured after 0, 1, 2, 4 and 24 h of incubation at 37° C. A growth control without antibiotic was also tested.

The test system of data set [2] is A. baumannii N16870. Description: Minimum inhibitory concentration, clinical isolate A. baumannii N16870. Format: cell-based, Acinetobacter baumannii.
Data set [3] has as its system A. baumannii N16870. Description: Time-kill assay against A. baumannii N16870. Format: cell-based, Acinetobacter baumannii. Particulars: for time-kill antibacterial activity, monotherapy (summary): considerable regrowth except colistin at 48 mg/L. The method, then:
as §1

Data set [4] concerns Pseudomonas aeruginosa 19147. Description: Minimum inhibitory concentration, clinical isolate Pseudomonas aeruginosa 19147. Format: cell-based.
The mark [5] stands for this setting: monotherapy 16 mg/L, up to 24 h.

Values after ≈ are worked out from the molar mass of the structure shown. Read-outs that look alike come from different tables or passages of the source.

On to `C[C@@H](O)[C@H]1C(=O)N2C(C(=O)O)=C(S[C@@H]3CN[C@H](C(=O)N(C)C)C3)[C@H](C)[C@H]12` [meropenem], for which the water solubility entry in data set [1] is given as “approximately 16.4 mg/mL”. Also, the “time-kill antibacterial activity, monotherapy (summary)” value in the data set on P. aeruginosa 19147 and in the data set on A. baumannii N16870 [3] was “weak antibacterial activity” each time. Besides, the “complete bacterial killing in time-kill” value in the data set on P. aeruginosa 19147 is recorded as “complete killing could not be achieved”. Further, the MIC (in the data set on A. baumannii N16870 [2] (Acinetobacter baumannii); in data set [4] (read-out: MIC)) was 16 µg/mL (≈ 41.7 µM) throughout. Besides, the time-kill antibacterial effect result is on record as “no antibacterial effect” in the data set on A. baumannii N16870 [3] (setting [5]) and “marginal antibacterial activity” in the data set with A. baumannii N16870 [3] (monotherapy 48 mg/L). Also, the regrowth in time-kill result with A. baumannii N16870 [3] (monotherapy 48 mg/L) was “regrowth was observed in 4 h”.

On to colistin, for which the “time-kill antibacterial activity, monotherapy (summary)” value in the data set with P. aeruginosa 19147 and with A. baumannii N16870 [3] was “weak antibacterial activity” each time. For the same compound, the “complete bacterial killing in time-kill” value in the data set with P. aeruginosa 19147 is recorded as “complete killing could not be achieved”. For the same compound, the “minimum inhibitory concentration [MIC]” value in the data set on A. baumannii N16870 [2] is 0.5 µg/mL. Moreover, the regrowth in time-kill entry in the data set with A. baumannii N16870 [3] (monotherapy 16 mg/L) is given as “regrowth was evident in 4 h”. Further, the time-kill antibacterial effect result in the data set with A. baumannii N16870 [3] (setting [5]) and in the data set with A. baumannii N16870 [3] (monotherapy 48 mg/L) was “bacterial killing” in each case. The MIC (in general, the smallest concentration in the dilution series that meets the test's criterion for growth inhibition) in data set [4] was 0.5 µg/mL.
